{
  "source": "patent US6552066B1",
  "about": "“Protein tyrosine kinase inhibitors for treating osteoarthritis” (priority 1995, dated 2003)",
  "key": {"[1]": {"test_system": "IL-1-induced aggrecan degradation", "assay": "Aggrecan degradation in IL-1-stimulated chondrocytes, 2-B-6 antibody immunoblot", "assay_type": "cell-based, bovine", "conditions": "for intensity of staining (total amount of PG fragments), 2-B-6: relative to PKA, PKC and calmodulin-dependent kinase inhibitor samples", "description": "(§1) Primary bovine articular chondrocytes from calf adio-carpal joints were isolated and cultured as above in Example 1, up to and including the addition of the following protein kinase inhibitors: 1) Protein kinase A (PKA) inhibitors; 0.5 μM H88 (Seikagaku Corp.), 0.5 μM H89 (Seikagaku Corp.); 2) Protein kinase C (PKC) inhibitors; 0.5 μM Calphostin C (Calbiochem), 1.0 μM Chelerythrine (Calbiochem); 3) CA^2+/Calmodulin Kinase II inhibitor; 5.0 μM KN93 (Seikagaku Corp.); 4) Protein tyrosine kinase (PTK) inhibitors; 50 μM Genistein (Calbiochem), 10 μM Herbimycin A (Calbiochem). After the 24 hour IL-1α incubation, the media of each sample was measured, and collected on ice in the presence of the protease inhibitors EGTA (5 mM), Pefaloc (1 mM), pepstatin (1 μg/ml), and NEM (5 mM). Media were concentrated approximately 40 fold using a Centriprep-10 ultrafiltration device (Amicon).\n(§2) Proteoglycans contained within the media were deglycosylated by incubations with chondroitinase ABC, keratinase, and keratinase II following the procedure of Sandy et al. J Biol Chem (1991) 266:8683-8685 and Sandy et al. J. Clin Invest (1992) 89:1512-1516. Samples of deglycosylated media were subjected to 4-15% gradient SDS-PAGE and transferred to nitrocellulose membranes (2 ml-worth and 6 ml-worth of media were used for 2-B-6 and BC-3 immunoblotting, respectively.) The membranes were blocked with 1% nonfat dry milk and 1% BSA, and then incubated in either the BC-3 or 2-B-6 primary monoclonal antibody for 1 hour. The 2-B-6 antibody detects chondroitin sulfate stubs on chondroitinase-treated proteoglycans (both intact and degradation products. BC-3 antibody detects “ARGSV . . . ,” the new N-terminus (“neoepitope”) resulting from cleavage of aggrecan interglobular domain at Glu^373/ALA^374 by aggrecanase. It is of note to mention that the BC-3 and 2-B-6 antibodies were of low sensitivity. Following 3 washes, membranes were incubated in either alkaline phosphatase-conjugated goat anti-mouse (for the 2-B-6 blot) or biotinylated goat anti-mouse (for the BC-3 blot); followed by alkaline phosphatase-conjugated streptavidin/biotin complex). After washing 3 times, immunoreactive proteins were detected using NBT/BCIP (Sigma) colorimetric substrate.\nThe 2-B-6 antibody detected intact aggrecan (the uppermost band) and several aggrecan degradation products, along with decorin and biglycan (50K doublet), in the IL-1-treated media samples. […] The bands in the IL-1 sample that are seen at 230K, 200K, 130K and 100K have been previously identified by sequence analysis to result from IL-1-induced “aggrecanase” cleavage.\n(§3) A repeat of the Western immunoblotting experiment using 2-B-6 antibodies was performed. Furthermore, additional inhibitors from four enzyme families were examined: 1) Protein tyrosine kinase (PTK) inhibitors; 1 μM Tryphostin AG 1296 (Calbiochem), 50 μM Tyrphostin A25 (AG 82) (Calbiochem), 50 μM Tyrphostin AG 126 (Calbiochem), 50 μM Tyrphostin B56 (AG 556) (Calbiochem), 20 μM DAPH (Calbiochem); 2) Guanylate cyclase inhibitor; 10 μM LY-83583 (Calbiochem); 3) Casein kinase I inhibitor; 20 μM CKI-7 (Seikagaku Corp.); and 4) Protein kinase G (PKG) and PKA inhibitor; 5.0 μM H89."}, "[2]": {"test_system": "prostromelysin protein", "assay": "Western immunoblot of IL-1-induced prostromelysin protein in primary bovine chondrocytes", "assay_type": "cell-based", "conditions": "for effect on IL-1α-induced prostromelysin protein levels: repeat experiment; for effect on IL-1-induced prostromelysin levels: first experiment", "description": "Isolation and culturing of primary bovine articular chondrocytes, as well as addition of inhibitors were performed as indicated above in Example 4. The following protein kinase inhibitors were tested: 1) Protein kinase A (PKA) inhibitors; 0.5 μM H88 (Seikagaku Corp.), 0.5 μM H89 (Seikagaku Corp.), 2) Protein kinase C (PKC) inhibitors; 0.5 μM Calphostin C (Calbiochem), 1.0 μM Chelerythrine (Calbiochem); 3) CA^2+/Calmodulin Kinase II inhibitor; 5.0 μM KN93 (Seikagaku Corp.); 4) Protein tyrosine kinase (PTK) inhibitors; 50 μM Genistein (Calbiochem), 10 μM Herbimycin A (Calbiochem).\nAfter the 24 hour IL-1α incubation, the media of each sample was measured and collected on ice in the presence of the protease inhibitors EGTA (5 mM), Pefabloc (1 mM), pepstatin (1 μg/ml), and NEM (5 mM). Media were concentrated approximately 40 fold using a Centriprep-10 ultrafiltration device (Amicon). Concentrated samples were normalized to equivalent starting concentrations (cell number/culture volume), were reduced in the presence of SDS Laemmli sample buffer and electrophoresed in a precast 12% polyacrylamide gel (BioRad). Protein samples were then electroblotted to nitrocellulose and immunodetected using a primary antibody that recognizes both prostromelysin and stromelysin. Immunoreactive bands were visualized with the ABC detection (Pierce) and an NBT/BCIP color reagent (Sigma).\nas §3, with “antistromelysin” for “2-B-6”, “inhibitors:” for “inhibitors;”, “Tyrphostin” for “Tryphostin”, “126” for “126 (Calbiochem), 50 μM Tyrphostin B56 (AG 556) (Calbiochem), 20 μM DAPH”"}, "[3]": {"test_system": "aggrecanase activity in bovine cartilage explants", "assay": "Bovine cartilage explant assay without added plasminogen (IL-1-induced aggrecanase degradation)", "assay_type": "cell-based", "conditions": "no added plasminogen", "excerpt": "The assay described in Example 2 can be carried out with and without added plasminogen. With plasminogen, the active forms of the metalloproteinases (MMPs) and plasmin were generated. It is believed that MMPs, “aggrecanase” and plasmin degraded the cartilage explant in this assay. […] Therefore, in the absence of plasminogen, cartilage degradation occurred primarily as a result of “aggrecanase” activity."}, "[4]": {"test_system": "aggrecanase cleavage of aggrecan (230K fragment)", "assay": "Aggrecanase neoepitope in IL-1-stimulated chondrocytes, BC-3 antibody immunoblot", "assay_type": "cell-based, bovine", "description": "as §1, §2"}, "[5]": {"conditions": "concentration not printed in Example 5"}},
  "data": [
    {"smiles": "O=C1NC(=O)c2cc(Nc3ccccc3)c(Nc3ccccc3)cc21", "note": "[DAPH, 4,5-dianilinophthalimide]", "values": [
      {"measurement": "inhibition of IL-1-induced aggrecan degradation, 2-B-6", "setting": "[1]; 20 μM, repeat experiment", "value": "moderately strong inhibition"},
      {"measurement": "effect on IL-1α-induced prostromelysin protein levels", "setting": "[2]; [5]", "value": "dramatic reduction"}
    ]},
    {"smiles": "O=c1c(-c2ccc(O)cc2)coc2cc(O)cc(O)c12", "note": "[Genistein]", "values": [
      {"measurement": "inhibition at 50 µM", "setting": "[3]; Bos taurus, 50 μM, read-out: inhibition of release of 35S-labelled proteoglycan", "value": 37, "unit": "%"},
      {"measurement": "BC-3 immunoreactive band at approximately 230K (aggrecanase-mediated fragment)", "setting": "[4]; 50 μM", "value": "not present"},
      {"measurement": "level of the 230K aggrecan degradation product, 2-B-6", "setting": "[1]; 50 μM", "value": "significantly reduce"},
      {"measurement": "levels of the uppermost band (intact aggrecan), 2-B-6", "setting": "[1]; 50 μM", "value": "increased"},
      {"measurement": "intensity of staining (total amount of PG fragments), 2-B-6", "setting": "[1]; 50 μM", "value": "reduced"},
      {"measurement": "inhibition of IL-1-induced aggrecan degradation, 2-B-6", "setting": "[1]; 50 μM, repeat experiment", "value": "partial inhibition"},
      {"measurement": "effect on IL-1-induced prostromelysin levels", "setting": "[2]; 50 μM", "value": "completely inhibited"},
      {"measurement": "effect on IL-1α-induced prostromelysin protein levels", "setting": "[2]; 50 μM", "value": "dramatic reduction"}
    ]},
    {"smiles": "CO[C@H]1[C@@H](OC)C[C@H](C)[C@@H](OC)C2=CC(=O)C=C(NC(=O)/C(C)=C/C=C\\[C@H](OC)[C@@H](OC(N)=O)/C(C)=C/[C@@H]1C)C2=O", "note": "[Herbimycin A]", "values": [
      {"measurement": "inhibition at 0.25 µM", "setting": "[3]; Bos taurus, 0.25 μM, read-out: inhibition of release of 35S-labelled proteoglycan", "value": 55, "unit": "%"},
      {"measurement": "inhibition at 0.5 µM", "setting": "[3]; Bos taurus, 0.5 μM, read-out: inhibition of release of 35S-labelled proteoglycan", "value": 63, "unit": "%"},
      {"measurement": "inhibition at 1 µM", "setting": "[3]; Bos taurus, 1 μM, read-out: inhibition of release of 35S-labelled proteoglycan", "value": 78, "unit": "%"},
      {"measurement": "BC-3 immunoreactive band at approximately 230K (aggrecanase-mediated fragment)", "setting": "[4]; 10 μM", "value": "not present"},
      {"measurement": "level of the 230K aggrecan degradation product, 2-B-6", "setting": "[1]; 10 μM", "value": "significantly reduce"},
      {"measurement": "levels of the uppermost band (intact aggrecan), 2-B-6", "setting": "[1]; 10 μM", "value": "increased"},
      {"measurement": "intensity of staining (total amount of PG fragments), 2-B-6", "setting": "[1]; 10 μM", "value": "reduced"},
      {"measurement": "inhibition at 10 µM", "setting": "[1]; Bos taurus, Chondrocyte, 10 μM, repeat experiment", "value": "~100", "unit": "%"},
      {"measurement": "effect on IL-1-induced prostromelysin levels", "setting": "[2]; 10 μM", "value": "completely inhibited"},
      {"measurement": "effect on IL-1α-induced prostromelysin protein levels", "setting": "[2]; 10 μM", "value": "dramatic reduction"}
    ]},
    {"smiles": "N#CC(C#N)=Cc1cc(O)c(O)c(O)c1", "note": "[Tyrphostin AG 82]", "values": [
      {"measurement": "inhibition of release of 35S-labelled proteoglycan", "setting": "[3]; 50 μM", "value": 31, "unit": "%"},
      {"measurement": "inhibition of IL-1-induced aggrecan degradation, 2-B-6", "setting": "[1]; 50 μM, repeat experiment", "value": "moderate inhibition"},
      {"measurement": "effect on IL-1α-induced prostromelysin protein levels", "setting": "[2]; 50 μM", "value": "slight inhibitory activity"}
    ]},
    {"smiles": "N#CC(C#N)=Cc1ccc([N+](=O)[O-])c(O)c1", "note": "[Tyrphostin AG 126]", "values": [
      {"measurement": "inhibition of release of 35S-labelled proteoglycan", "setting": "[3]; 50 μM", "value": "no effect"},
      {"measurement": "inhibition of IL-1-induced aggrecan degradation, 2-B-6", "setting": "[1]; 50 μM, repeat experiment", "value": "no inhibitory effect"},
      {"measurement": "effect on IL-1α-induced prostromelysin protein levels", "setting": "[2]; 50 μM", "value": "no effect"}
    ]},
    {"smiles": "N#C/C(=C\\c1ccc(O)c(O)c1)C(=O)NCCCCc1ccccc1", "note": "[Tyrphostin AG 556]", "values": [
      {"measurement": "inhibition of IL-1-induced aggrecan degradation, 2-B-6", "setting": "[1]; 50 μM, repeat experiment", "value": 100, "unit": "%"},
      {"measurement": "effect on IL-1α-induced prostromelysin protein levels", "setting": "[2]; [5]", "value": "dramatic reduction"}
    ]}
  ]
}
